The test system of data set [1] is HIV-1 based replication-defective lentiviral particles. The experiment in a line: microbe, parasite or virus in culture. The format is cell-based. To be noted: for EC50: Human immunodeficiency virus 1, Jurkat, 72 h.
Data set [2] has the same test system. The experiment in a line: microbe, parasite or virus in culture. As to conditions: for EC50: Human immunodeficiency virus 1, CEM-SS, 72 h. The format is cell-based.
A short description of data set [3]: Cell viability analysis, Trypan blue staining, CEM-ss cells. The format is cell-based, human. To be noted: human, CEM-ss cells, 0–30 μM. On the procedure:
(§1) In this study, we used Jurkat and CEM-ss (human T-lymphoblastic leukemia) cells cultured in RPMI-1640 medium and HEK293T (human embryonic kidney cells) cells cultured in a DMEM medium. Growth medium was supplemented with 10% FBS (fetal bovine serum), 2 mM L-glutamine, 1mM sodium pyruvate, 100 μg/mL of streptomycin, and 100 units/mL of penicillin (Gibco/Invitrogen Life technologies). Cells were cultured at 37 °C in a humidified atmosphere with 5% CO2.
(§2) Palbociclib was dissolved in H2O. At 72 h after treatment, cell viability was assessed by staining with a 0.4% Trypan blue solution (Invitrogene Corp., Carlsbad, CA, USA) by counting in a Neubauer chamber. CC50s were calculated by nonlinear regression with variable slope (four parameters) and robust fitting using the GraphPad Prism software v.8.4.3 (GraphPad Software, San Diego, CA, USA).

A short description of data set [4]: Cell viability analysis, Trypan blue staining, Jurkat cells. In kind it is cell-based, human. As to conditions: human, 72 h. On the procedure:
as §1, §2

Data set [5] deals with HIV-1 based replication-defective lentiviral particles. Put plainly: Drug combination analysis Palbociclib with AZT or 2f, VP-GFP transduction of Jurkat cells. To be noted: for drug interaction with Palbociclib (ZIP synergy): pre-treated with Palbociclib 12 h; for inhibition at 0.0029 µM / inhibition at 0.0059 µM / inhibition at 0.0117 µM: Human immunodeficiency virus 1, Jurkat, read-out: Inhibition efficiency, %, Jurkat. The format is cell-based. The method, then:
At 48 h post treatment with viral particles encoding marker GFP, the transduction efficiency was measured by flow cytometry (Figure 6E). In both combinations, Palbociclib was used in concentrations of ~3 nM, ~6 nM, or ~12 nM. […] Then, the dose-response matrixes were used to calculate synergy scores using ZIP algorithm (Figure 6F,G).

In the next data set the test system is CEM-ss cells. The experiment in a line: Cell viability analysis, Trypan blue staining, CEM-ss cells. In kind it is cell-based, human. To be noted: 72 h, concentrations up to 30 μM. On the procedure: as §1, §2
Data set [6] concerns Jurkat cells. Put plainly: Cell viability analysis, Trypan blue staining, Jurkat cells. In kind it is cell-based, human. On the procedure: as §1, §2
The subject of data set [7] is Jurkat cells. Put plainly: Cell cycle analysis, propidium iodide staining, Jurkat cells. The format is cell-based, human. To be noted: concentrations up to 12 nM. The method, then:
(§3) Apoptosis was measured by double staining with Annexin V-FITC (Invitrogene, Thermo Scientific, Waltham, MA, USA) and propidium iodide (PI) (Sigma, Cibolo, TX, USA) 72 h after transduction. To measure the distribution of cells in the phases of the cell cycle, Jurkat cells were fixed in ethanol and stained with propidium iodide. All measurements were performed on an LSR Fortessa flow cytometer (BD Biosciences, San Jose, CA, USA). […] Analysis of cell cycle rate was performed with ModFit LT software v.4.1.7 (Verity Software House, Topsham, ME, USA).

For data set [8], the system named is Jurkat cells. The experiment in a line: Apoptosis analysis, Annexin V-FITC/PI staining, Jurkat cells. To be noted: 72 h, concentrations up to 12 nM. The format is cell-based, human. The method, then:
as §3

The subject of data set [9] is HIV-1 based replication-defective lentiviral particles. Put plainly: Drug combination analysis AZT with 2f, VP-GFP transduction of Jurkat cells.
Method: (§4) In our experiments, we decided not to exceed the concentration of 30 μM of each drug in order to exclude the possible side effects of DMSO; concentration in a well for these experiments was not more than 0.06%. The equivalent concentration of DMSO (0.06%) was used in control samples of cells not treated with drugs. […] At 72 h after transduction, the percentage of eGFP-positive cells was determined by flow cytometry (LSR Fortessa, BD Biosciences, Heidelberg, Germany). […] Analysis of the eGFP positive cells percentage was performed with FlowJo software 10.0.7 (FlowJo LLC, Ashland, OR, USA).
(§5) For this we used both compounds at the wide range of concentrations.
(§6) Next, the synergy distribution plots were generated and analyzed using the Synergy Finder v3.0 web source. We used the ZIP model to calculate synergy scores that were used to interpret drug interaction relationships. Scores larger than 10 mean that the interaction between two drugs is synergistic. Scores up to 10 mean that the interaction is likely to be additive.
The test system is the same in data set [10]. The experiment in a line: Drug combination analysis AZT with 2f, VP-GFP transduction of CEM-ss cells. As to conditions: AZT and 2f in combination, up to 30 μM each.
Method: as §4, §5, §6
[11] abbreviates: 72 h, concentrations up to 30 μM.

Molecules are shown by their SMILES. Like-named read-outs stand apart in the source and are kept apart here.

What is called EC50 is the concentration that produces a half-maximal response. A high value points to a less potent agent. For orientation: CC50 means the concentration that lowers cell viability or growth by half. Broadly, the inhibition is how much of the control response was suppressed.

On to `CC1(C)O[C@@H]2[C@H](O1)[C@@H](CO)O[C@H]2n1ccc(=O)[nH]c1=O` [2a, 2′,3′-O-isopropylideneuridine], for which the EC50 in data set [1] and in data set [2] was > 30 µM each time. In addition, the CC50 at 72 h in data set [3] and in [4] (0–30 μM) was > 30 µM each time.
Take `CC1(C)O[C@@H]2[C@H](O1)[C@@H](CO)O[C@H]2n1cc(Br)c(=O)[nH]c1=O` [2e, 2′,3′-O-isopropylidene-5-bromouridine]: the EC50 in [1] and in [2] was > 30 µM throughout. The CC50 at 72 h in data set [3] and in data set [4] (0–30 μM) was > 30 µM each time.
As for `Cc1cn([C@H]2C[C@H](N=[N+]=[N-])[C@@H](CO)O2)c(=O)[nH]c1=O` [AZT, 3′-Azido-2′,3′-dideoxythymidine, reference compound], the “drug interaction with Palbociclib (ZIP synergy)” value in data set [5] (Jurkat) is on record as “no synergistic action”. Also, the EC50 in [1] was determined as 0.4 ± 0.1 µM; in [2], 0.0122 ± 0.0114 µM. In addition, the “cells remaining GFP positive (plateau effect)” value is “about 30%” in data set [1] (Jurkat, from 2 μM up to 30 μM) and “about 20%” in [2] (CEM-ss, from 2 μM up to 30 μM). For the same molecule, the “effect on cell survival” value in the data set with CEM-ss cells and in the data set on Jurkat cells [6] (setting [11]) was “did not affect cell survival” each time. Further, the CC50 at 72 h in data set [3] was > 30 µM; in data set [4] (Jurkat cells, 0–30 μM) it was > 30 µM.
On to `CC1(C)O[C@@H]2[C@H](O1)[C@@H](CO)O[C@H]2n1cc(F)c(=O)[nH]c1=O` [2c, 2′,3′-O-isopropylidene-5-fluorouridine], for which the “effect on cell survival” value in the data set with CEM-ss cells and in the data set with Jurkat cells [6] (setting [11]) was “significant suppressive effect on the survival” each time. Also, the CC50 at 72 h was found to be 8.4 ± 2.2 µM in [3] and 7.9 ± 0.6 µM in data set [4] (0–30 μM).
In the case of `CC(=O)c1c(C)c2cnc(Nc3ccc(N4CCNCC4)cn3)nc2n(C2CCCC2)c1=O` [Palbociclib], the “effect on cell cycle progression” value in the data set on Jurkat cells [7] is on record as “did not find any effect on cell cycle progression”. Besides, the inhibition at 0.0029 µM in data set [5] (Palbociclib alone 2.9 nM (2f 0 nM, matrix of panel G)) was 10.8%; in data set [5] (Palbociclib alone 2.9 nM (AZT 0 nM, matrix of panel F)), 8.03%. Moreover, the inhibition at 0.0059 µM came to 5.66% in data set [5] (Palbociclib alone 5.9 nM (2f 0 nM, matrix of panel G)) and 8.75% in data set [5] (Palbociclib alone 5.9 nM (AZT 0 nM, matrix of panel F)). Moreover, the inhibition at 0.0117 µM was found to be 3.9% in data set [5] (Palbociclib alone 11.7 nM (2f 0 nM, matrix of panel G)) and 0.83% in data set [5] (Palbociclib alone 11.7 nM (AZT 0 nM, matrix of panel F)). Further, in [5] (Jurkat, Palbociclib alone, ~3, ~6 or ~12 nM), the “suppressive effect on transduction efficiency of VP-GFP” value is “not more than 10%”. Besides, in the data set on Jurkat cells [6] (concentrations up to 12 nM), the “effect on cell survival” value is on record as “not to affect cell survival”. In [4] (Jurkat cells, Palbociclib 0–6 μM), this molecule gave a CC50 at 72 h of 0.141 ± 0.0256 µM. Besides, in the data set with Jurkat cells [8], the induction of apoptosis entry is given as “does not cause the induction of apotosis”.
For `Cc1cn([C@@H]2O[C@H](CO)[C@H]3OC(C)(C)O[C@H]32)c(=O)[nH]c1=O` [2b, 2′,3′-O-isopropylidene-5-methyluridine], the EC50 in data set [1] and in [2] was > 30 µM throughout. In addition, the CC50 at 72 h in data set [3] and in data set [4] (0–30 μM) was > 30 µM each time.
With `CC1(C)O[C@@H]2[C@H](O1)[C@@H](CO)O[C@H]2n1cc(I)c(=O)[nH]c1=O` [2f, 2′,3′-O-isopropylidene-5-ioduridine], the “suppression of VP-GFP transduction efficiency” value in [9] (2f 12 μM supplemented with AZT 12 μM, compared with 2f alone 30 μM (90%)) is listed as “same activity”; in [9] (compound alone, 12 μM) it was 70%; in [9] (compound alone, 30 μM) it was 90%. Moreover, the “drug interaction (ZIP synergy, SynergyFinder)” value in data set [9] (AZT and 2f in combination, up to 30 μM each) is listed as “do not act synergistically”; in [10] it was “do not act synergistically”. In [5] (Jurkat), the “drug interaction with Palbociclib (ZIP synergy)” value is “acts synergistically”. The “effect on transduction efficiency of HIV-1 lentiviral particles (VP-GFP)” value in [1] is given as “caused the suppression of the transduction efficiency”. Moreover, the EC50 in data set [1] was 10.5 ± 1.2 µM; in data set [2] it was 13.1 ± 1.3 µM. Also, the CC50 at 72 h in data set [3] and in data set [4] (0–30 μM) was > 30 µM in each case.
For the molecule `CC1(C)O[C@@H]2[C@H](O1)[C@@H](CO)O[C@H]2n1cc(Cl)c(=O)[nH]c1=O` [2d, 2′,3′-O-isopropylidene-5-chlorouridine], the EC50 in [1] and in data set [2] was > 30 µM each time. In addition, the CC50 at 72 h in [3] and in [4] (0–30 μM) was > 30 µM each time.

For the origin of these results see PMC10610023, “Nucleoside Analog 2′,3′-Isopropylidene-5-Iodouridine as Novel Efficient Inhibitor of HIV-1” (Pharmaceutics, 2023).
